Data taken from US20250296938A1, “Compounds that Interact with the Ras Superfamily for the Treatment of Cancers, Inflammatory Diseases, Rasopathies, and Fibrotic Disease” (SHY Therapeutics, LLC, priority 2018, published 2025).
Read-outs that look alike come from different tables or passages of the source.

Legend:
Experiment in all cases: Ras GTP binding domain inhibition assay (Cy3-GTP/Cy5-GTP competition)
KRas G12D mutant = biological target: T1, KRas G12D mutant (Homo sapiens, UniProt P01116, G12D)
T1 construct: fused on or other part: His tag, used for capture on nickel-coated plates
In short: (§1)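 Compounds tested at 20 μM or in serial dilution for IC50 against nickel-captured His-tagged GTPase, 3 hours at room temperature, with or without His-Sos GEF added for last hour. Fluorescent GTP then added at 100 nM for 45 minutes; wells washed, bound label measured by fluorescence.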

Rac-1 = Rac-1 (Homo sapiens, UniProt P63000)
In short: (§2)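 First, His-tagged protein is coated on nickel wells overnight at 4 °C. Next, compound (20 μM single point or serial dilution) is added for 3 h at room temperature, with or without Sos exchange factor in the last hour. Finally, 100 nM labelled GTP binds for 45 min and retained signal is measured.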

Rho-A = Rho-A (Homo sapiens, UniProt P61586)
In short: as §2

KRas G12C mutant = system: KRas G12C mutant; set-up: species or system human; settings: 20 μM; for KRas G12C mutant + SOS: % inh.: with SOS (Table 7A); for KRas G12C mutant: % inh.: without SOS (Table 7A)
In short: as §1

KRas Q61H mutant = system: KRas Q61H mutant; set-up: species or system human; settings: 20 μM; for KRas Q61H mutant + SOS: % inh.: with SOS (Table 7A); for KRas Q61H mutant: % inh.: without SOS (Table 7A)
In short: as §1

KRas wild type = system: KRas wild type; set-up: species or system human; settings: 20 μM; for KRas wild type + SOS: % inh.: with SOS (Table 7A); for KRas wild type % inh.: without SOS (Table 7A)
In short: as §1

[1] = at 20 μM, with SOS, read-out: KRas G12D mutant + SOS: % inh.
[2] = at 20 μM, without SOS, read-out: KRas G12D mutant: % inh.
[3] = with SOS, read-out: Rac-1 + SOS: % inh.
[4] = without SOS, read-out: Rac-1: % inh.
[5] = with SOS, read-out: Rho-A + SOS: % inh.
[6] = without SOS, read-out: Rho-A: % inh.
[7] = 20 μM, with SOS (Table 7A), read-out: KRas G12D mutant + SOS: % inh.
[8] = 20 μM, without SOS (Table 7A), read-out: KRas G12D mutant: % inh.

CCOC1CCN(c2nc(-c3nccn3C)nc3sc(-c4ccn(C)n4)c(-c4ccccc4)c23)C1 (stereo not shown)
inhibition at 20 µM (KRas G12D mutant; [1]): 26 to 50%
inhibition at 20 µM (KRas G12D mutant; [2]): 26 to 50%
inhibition at 20 µM (Rac-1; [3]): 26 to 50%
inhibition at 20 µM (Rac-1; [4]): 1 to 25%
inhibition at 20 µM (Rho-A; [5]): 0%
inhibition at 20 µM (Rho-A; [6]): 26 to 50%

CO[C@H]1CC[C@@H](Nc2nc(-c3nccn3C)nc3sc(C(=O)N4CCCC4)c(-c4ccccc4)c23)C1 [drawing 926]
KRas G12C mutant + SOS: % inh. (KRas G12C mutant): D (76-100% inhibition)
KRas G12C mutant: % inh. (KRas G12C mutant): D (76-100% inhibition)
KRas Q61H mutant + SOS: % inh. (KRas Q61H mutant): D (76-100% inhibition)
KRas Q61H mutant: % inh. (KRas Q61H mutant): D (76-100% inhibition)
KRas wild type + SOS: % inh. (KRas wild type): C (51-75% inhibition)
KRas wild type % inh. (KRas wild type): C (51-75% inhibition)
inhibition at 20 µM (KRas G12D mutant; [7]): 51 to 75%
inhibition at 20 µM (KRas G12D mutant; [8]): 51 to 75%

CO[C@H]1CC[C@@H](Nc2nc(-c3nccn3C)nc3sc(C(=O)N4CCOCC4)c(-c4ccccc4)c23)C1 [drawing 927]
KRas G12C mutant + SOS: % inh. (KRas G12C mutant): C (51-75% inhibition)
KRas G12C mutant: % inh. (KRas G12C mutant): C (51-75% inhibition)
KRas Q61H mutant + SOS: % inh. (KRas Q61H mutant): D (76-100% inhibition)
KRas Q61H mutant: % inh. (KRas Q61H mutant): D (76-100% inhibition)
KRas wild type + SOS: % inh. (KRas wild type): C (51-75% inhibition)
KRas wild type % inh. (KRas wild type): D (76-100% inhibition)
inhibition at 20 µM (KRas G12D mutant; [7]): 51 to 75%
inhibition at 20 µM (KRas G12D mutant; [8]): 76 to 100%

COCCn1cc(Nc2nc(-c3ccccn3)nc(OC)c2OC)cn1 [drawing 928]
inhibition at 20 µM (KRas G12D mutant; [1]): 1 to 25%
inhibition at 20 µM (KRas G12D mutant; [2]): 1 to 25%
inhibition at 20 µM (Rac-1; [3]): 1 to 25%
inhibition at 20 µM (Rac-1; [4]): 1 to 25%
inhibition at 20 µM (Rho-A; [5]): 0%
inhibition at 20 µM (Rho-A; [6]): 0%

COc1nc(-c2ccccn2)nc(Nc2cnn(C)c2)c1OC [drawing 929]
inhibition at 20 µM (KRas G12D mutant; [1]): 0%
inhibition at 20 µM (KRas G12D mutant; [2]): 0%
inhibition at 20 µM (Rac-1; [3]): 0%
inhibition at 20 µM (Rac-1; [4]): 1 to 25%
inhibition at 20 µM (Rho-A; [5]): 1 to 25%
inhibition at 20 µM (Rho-A; [6]): 0%

COCCNc1nc(-c2cn(C)cn2)nc2sc(-c3cc(OC)ccc3Cl)c(-c3ccc(OC)cc3)c12 [drawing 930]
inhibition at 20 µM (KRas G12D mutant; [1]): 26 to 50%
inhibition at 20 µM (KRas G12D mutant; [2]): 26 to 50%
inhibition at 20 µM (Rac-1; [3]): 51 to 75%
inhibition at 20 µM (Rac-1; [4]): 51 to 75%
inhibition at 20 µM (Rho-A; [5]): 26 to 50%
inhibition at 20 µM (Rho-A; [6]): 51 to 75%

COC1CCN(c2nc(-c3nccn3C)nn3cc(-c4ccccc4)c(-c4ccccc4)c23)C1 (stereo not shown) [drawing 931]
inhibition at 20 µM (KRas G12D mutant; [1]): 1 to 25%
inhibition at 20 µM (KRas G12D mutant; [2]): 26 to 50%
inhibition at 20 µM (Rac-1; [3]): 51 to 75%
inhibition at 20 µM (Rac-1; [4]): 26 to 50%
inhibition at 20 µM (Rho-A; [5]): 26 to 50%
inhibition at 20 µM (Rho-A; [6]): 51 to 75%

COCCNc1nc(-c2cn(C)cn2)nc2sc(-c3cccc(OC)c3Cl)c(-c3ccc(OC)cc3)c12 [drawing 932]
inhibition at 20 µM (KRas G12D mutant; [1]): 26 to 50%
inhibition at 20 µM (KRas G12D mutant; [2]): 26 to 50%
inhibition at 20 µM (Rac-1; [3]): 51 to 75%
inhibition at 20 µM (Rac-1; [4]): 51 to 75%
inhibition at 20 µM (Rho-A; [5]): 51 to 75%
inhibition at 20 µM (Rho-A; [6]): 51 to 75%

CC(C)CN(C)C(=O)c1nc(-c2ccccn2)nc(O)c1O [drawing 933]
inhibition at 20 µM (KRas G12D mutant; [1]): 26 to 50%
inhibition at 20 µM (KRas G12D mutant; [2]): 26 to 50%
inhibition at 20 µM (Rac-1; [3]): 26 to 50%
inhibition at 20 µM (Rac-1; [4]): 51 to 75%
inhibition at 20 µM (Rho-A; [5]): 51 to 75%
inhibition at 20 µM (Rho-A; [6]): 26 to 50%

CN(Cc1ccccc1)C(=O)c1nc(-c2ccccn2)nc(O)c1O [drawing 934]
inhibition at 20 µM (KRas G12D mutant; [1]): 26 to 50%
inhibition at 20 µM (KRas G12D mutant; [2]): 26 to 50%
inhibition at 20 µM (Rac-1; [3]): 26 to 50%
inhibition at 20 µM (Rac-1; [4]): 51 to 75%
inhibition at 20 µM (Rho-A; [5]): 51 to 75%
inhibition at 20 µM (Rho-A; [6]): 51 to 75%

O=C(c1nc(-c2ccccn2)nc(O)c1O)N1CCOCC1 [drawing 935]
inhibition at 20 µM (KRas G12D mutant; [1]): 26 to 50%
inhibition at 20 µM (KRas G12D mutant; [2]): 26 to 50%
inhibition at 20 µM (Rac-1; [3]): 26 to 50%
inhibition at 20 µM (Rac-1; [4]): 51 to 75%
inhibition at 20 µM (Rho-A; [5]): 26 to 50%
inhibition at 20 µM (Rho-A; [6]): 26 to 50%

COc1cccc(Oc2nc(-c3ccccn3)nc(O)c2OC)c1 [drawing 936]
inhibition at 20 µM (KRas G12D mutant; [1]): 51 to 75%
inhibition at 20 µM (KRas G12D mutant; [2]): 76 to 100%
inhibition at 20 µM (Rac-1; [3]): 76 to 100%
inhibition at 20 µM (Rac-1; [4]): 76 to 100%
inhibition at 20 µM (Rho-A; [5]): 51 to 75%
inhibition at 20 µM (Rho-A; [6]): 51 to 75%

COc1c(O)nc(-c2ccccn2)nc1Oc1cccnc1 [drawing 937]
inhibition at 20 µM (KRas G12D mutant; [1]): 51 to 75%
inhibition at 20 µM (KRas G12D mutant; [2]): 51 to 75%
inhibition at 20 µM (Rac-1; [3]): 76 to 100%
inhibition at 20 µM (Rac-1; [4]): 76 to 100%
inhibition at 20 µM (Rho-A; [5]): 76 to 100%
inhibition at 20 µM (Rho-A; [6]): 76 to 100%
